Assay results taken from patent US10676449B2, “Electronically activated strained alkynes” (Wisconsin Alumni Research Foundation, priority 2017, dated 2020).

Tests used:
Format in all cases: physicochemical
[1] = strain-promoted 1,3-dipolar cycloaddition kinetics with benzyl azide (experimental second order rate constants); conditions: for k2: 1,3-dipolar cycloaddition with benzyl azide 5, acetonitrile, ambient temperatures; for krel.: reaction with benzyl azide, relative to 4b = 1.0; for change of rate of reaction with benzyl azide, in words: relative to the comparator alkyne; for Experimental Rate: CD3CN
From the text: The reactivity of the novel strained alkyne derivatives disclosed herein were first assessed using benzyl azide 5 as a model substrate (Table 1, model reaction at top). […] When steric hindrance was increased by placing the more bulky isopropyl group at C1, the rate of the reaction slowed to a sixth of that of […]. […] The effects of the heteroatoms in the ring were similarly pronounced. […] For Me-substituted substrates 4a and 4d, the rates slowed to roughly half their unprotected values. While a more electron-poor nitrogen heteroatom is expected to result in a stronger electronic effect and an expected increase in reaction rate, the conflicting effects of bond lengthening and steric repulsion between the Boc and R^1 groups overrides any benefit and results in a net slowing of rate. Similarly, when the homopropargylic oxygen atom was replaced with a Boc-protected nitrogen atom, the rate fell dramatically to an eighteenth of that of the sulfamate (4f). The fastest substrate, 1a, compares favorably to other reported strained alkynes. It is faster than OCT, the exocyclic heteroatom-activated MOFO, and the endocyclic heteroatom-activated alkynes reported by Toomoka et al., supra. The reaction rate of 1a is surpassed only slightly by DIFO.
With the difluorinated SNO-OCT 8a in hand, preliminary kinetic studies were carried out (Table 7) and compared to computed and experimental rates of both the parent SNO-OCTs 4 and 6, as well as 8. A rate enhancement of 13-fold was predicted in moving from the parent SNO-OCT 6 (entry 1, right column) to the difluorinated SNO-OCT 8 (entry 3, right column) in reactions with alkyl azides; this was quite similar to the experimental rate enhancement seen in moving from 4 to 8a of 18× (entries 1 and 3 in the left column).

[2] = experimental rate comparison of cycloalkynes with diazoacetamide 8 and azidoacetamide 7; conditions: ratio of rate constants with diazoacetamide and azidoacetamide
From the text: For these exploratory studies, diazoacetamide 8 (Table 3) and azidoacetamide 7 were chosen because of the increased nucleophilicity of 8 as compared to azide 7 and its ability to survive cellular metabolism. When comparing rate differences with diazoacetamide 8 and azidoacetamide 7 for common cycloalkynes, DIBAC reacted˜5-times faster with the diazoacetamide than the analogous azide in 1:1 CD3CN:D2O. […] At the same time, these compounds provide for complete selectivity that is as of yet lacking in cyclooctynes. It was hypothesized by the present inventors that properly positioned heteroatoms in sulfamate-derived cyclooctynes would lead to an increase in diazo-selective reactivity over azides, thus enabling orthogonal bioconjugation techniques.
The effects of the various heteroatoms on this increased chemoselectivity were investigated computationally. […] In contrast, the ΔΔG‡ is expected to increase, likely due to increased steric repulsion from the bulky Boc-group. This difference in rate provides ˜9:1 selectivity in competition experiments involving 1:1:1 mixtures of diazoacetamide […]:alkyne (4d, 4e). Efforts to improve the selectivity for reaction with 1 were undertaken by examining the effects of both propargylic and homopropargylic heteroatoms in 4.

[3] = experimental cycloaddition of SNO-OCTs with diazoacetamide; conditions: dipole diazoacetamide; CD3CN
From the text: A rate enhancement of ˜300-fold was predicted in moving from the parent SNO-OCT 6 (entry 2, right column) to the difluorinated SNO-OCT 8 (entry 4, right column) in reactions with alkyl diazaoacetamides. Experimentally, the rate enhancement in moving from 4 to 8a (entries 2 and 4 in the left column) could not be determined using proton NMR spectroscopy to monitor the progress of the reaction. […] While orthogonality was also observed for reactions of 4 and 8a with azides, the selectivity appeared to be lower than that predicted for the diazoalkanes.

Row | Compound | k2 [1] | krel. [1] | change of rate of reaction with benzyl azide, in words [1] | also measured
1 | CC1C#CCCOS(=O)(=O)N1 (stereo not drawn) [4a] | 0.066 M⁻¹ s⁻¹ | 2.6 |  | k2 ratio, diazoacetamide:azidoacetamide ([2]; CD3CN:D2O = 1:1): 8.5; k2 ratio, diazoacetamide:azidoacetamide ([2]; in CD3CN): 3.0
2 | CCCCCC1C#CCCOS(=O)(=O)N1 (stereo not drawn) [4b] |  | 1.0 |  | 
3 | CC(C)C1C#CCCOS(=O)(=O)N1 (stereo not drawn) [4c] | 0.0040 M⁻¹ s⁻¹ | 0.16 | a sixth | 
4 | CC1C#CCCOS(=O)(=O)N1C(=O)OC(C)(C)C (stereo not drawn) [4d] | 0.037 M⁻¹ s⁻¹ | 1.5 | roughly half | k2 ratio, diazoacetamide:azidoacetamide ([2]; in CD3CN): 5.0
5 | CCCCCC1C#CCCOS(=O)(=O)N1C(=O)OC(C)(C)C (stereo not drawn) [4e] | 0.042 M⁻¹ s⁻¹ | 1.7 | slowed slightly | 
6 | CC(C)C1C#CCCOS(=O)(=O)N1C(=O)OC(C)(C)C (stereo not drawn) [4f] |  |  | an eighteenth | 
7 | CC1C#CC(C)NS(=O)(=O)OC1 (stereo not drawn) [4g] | 0.047 M⁻¹ s⁻¹ | 1.9 |  | 
8 | CCCCCC1C#CCCN(C(=O)OC(C)(C)C)S(=O)(=O)N1 (stereo not drawn) [4h] | 0.0014 M⁻¹ s⁻¹ | 0.056 |  | 
9 | CCC1C#CC(F)(F)COS(=O)(=O)N1 (stereo not drawn) [8a] |  |  |  | Experimental Rate ([1]; dipole Bn—N3): 0.46 M⁻¹ s⁻¹; experimental rate enhancement in moving from 4 ([1]; reactions with alkyl azides (Bn—N3)): 18 ×
10 | CCCCCC1C#CCCOS(=O)(=O)N1 (stereo not drawn) [compound 4] |  |  |  | Experimental Rate [3]: 0.27 M⁻¹ s⁻¹
11 | [N-]=[N+]=NCc1ccccc1 [compound 5] |  |  |  | Experimental Rate (value in parentheses) ([1]; dipole Bn—N3, 2:1 D2O:CD3CN): 0.13 M⁻¹ s⁻¹; Experimental Rate ([1]; dipole Bn—N3): 0.087 M⁻¹ s⁻¹
12 | dibenzoazacyclooctyne [DIBAC, reference compound] |  |  |  | k2 ratio, diazoacetamide:azidoacetamide ([2]; CD3CN:D2O = 1:1): 6.5; k2 ratio, diazoacetamide:azidoacetamide ([2]; in CD3CN): 2.0
